SMILES strings stand for the structures.

EC50 data for 40 molecules are collected here from BindingDB's records for doi:10.7270/Q2M32T6M (Vanderbilt Screening Center for GPCRs, Ion Channels and …, 2009).

One assay addresses T1, Solute carrier family 12 member 5 (Homo sapiens, UniProt Q9H2X9).
T1 sequence (Q9H2X9 whole entry): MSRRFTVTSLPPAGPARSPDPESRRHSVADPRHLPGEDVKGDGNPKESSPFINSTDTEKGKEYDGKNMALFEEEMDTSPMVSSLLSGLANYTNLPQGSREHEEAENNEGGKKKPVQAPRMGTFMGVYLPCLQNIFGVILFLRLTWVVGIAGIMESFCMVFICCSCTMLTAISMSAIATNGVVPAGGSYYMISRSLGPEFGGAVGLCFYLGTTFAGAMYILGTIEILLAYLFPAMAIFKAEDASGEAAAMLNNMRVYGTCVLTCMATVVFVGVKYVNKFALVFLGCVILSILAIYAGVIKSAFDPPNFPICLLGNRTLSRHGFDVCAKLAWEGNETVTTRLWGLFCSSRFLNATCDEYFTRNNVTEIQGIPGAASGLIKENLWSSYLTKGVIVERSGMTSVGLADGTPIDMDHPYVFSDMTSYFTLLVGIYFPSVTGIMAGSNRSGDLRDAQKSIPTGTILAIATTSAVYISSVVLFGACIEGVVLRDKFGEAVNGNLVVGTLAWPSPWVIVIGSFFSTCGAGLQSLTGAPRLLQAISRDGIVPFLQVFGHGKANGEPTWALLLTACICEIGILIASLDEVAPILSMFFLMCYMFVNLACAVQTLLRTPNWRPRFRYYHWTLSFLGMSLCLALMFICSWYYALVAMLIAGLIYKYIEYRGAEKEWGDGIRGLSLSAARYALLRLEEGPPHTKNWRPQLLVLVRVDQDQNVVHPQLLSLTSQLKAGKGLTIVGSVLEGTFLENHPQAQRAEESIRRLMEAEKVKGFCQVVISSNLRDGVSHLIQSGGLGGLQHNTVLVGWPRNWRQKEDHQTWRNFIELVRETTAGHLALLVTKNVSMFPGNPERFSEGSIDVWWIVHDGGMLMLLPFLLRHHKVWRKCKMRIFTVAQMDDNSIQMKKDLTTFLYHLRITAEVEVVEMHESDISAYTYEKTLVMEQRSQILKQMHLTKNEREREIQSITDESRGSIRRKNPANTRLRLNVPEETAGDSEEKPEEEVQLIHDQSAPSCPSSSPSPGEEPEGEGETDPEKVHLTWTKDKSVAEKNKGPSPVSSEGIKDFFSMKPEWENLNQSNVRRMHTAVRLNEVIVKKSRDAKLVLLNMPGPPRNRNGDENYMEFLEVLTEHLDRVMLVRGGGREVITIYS
Kind of assay: KCC2 modulator potency by thallium flux, dose response, cell-based, HEK293 KCC2, FluoZin-2 fluorescence (AID 1736).
Settings: not given
On to `CC1(CCc2ccccc2)NC(=O)N(Cc2nnc(-c3ccccc3Br)o2)C1=O` (stereo not given) [3-[[5-(2-bromophenyl)-1,3,4-oxadiazol-2-yl]methyl]-5-methyl-5-(2-phenylethyl)imidazolidine-2,4-dione], for which the midpoint of the response, the EC50, lay at 6.01 µM.
Same read-out and setting: for `O=C(OCC(=O)N1CCN(C(=O)c2ccco2)CC1)c1sc2ccccc2c1Cl` [3-chloro-1-benzothiophene-2-carboxylic acid [2-[4-[2-furanyl(oxo)methyl]-1-piperazinyl]-2-oxoethyl] ester] the value was 1.6 µM.
Still for that read-out and setting: for `CCOc1cc(S(=O)(=O)NCc2ccccc2)ccc1F` [3-ethoxy-4-fluoranyl-N-(phenylmethyl)benzenesulfonamide] the value was 5.41 µM; for `C=C(C)Cn1c(N2CCC(Cc3ccccc3)CC2)nc2c1c(=O)[nH]c(=O)n2C` [3-methyl-7-(2-methylprop-2-enyl)-8-[4-(phenylmethyl)-1-piperidinyl]purine-2,6-dione], 15.8 µM; for `COCCNS(=O)(=O)c1ccc(-c2ccc(Cl)cc2)cc1` [4'-chloro-N-(2-methoxyethyl)-4-biphenylsulfonamide], 3.27 µM.
On the same count and under the same terms, the value for `Cc1c(N=C2Nc3cccc4cccc2c34)c(=O)n(-c2ccccc2)n1C` [4-(2-benzo[cd]indolylamino)-1,5-dimethyl-2-phenyl-3-pyrazolone] was 0.733 µM; that for `O=C(OCC(=O)N1CCc2ccccc2C1)c1ccc(N2CCOCC2)c([N+](=O)[O-])c1` [4-(4-morpholinyl)-3-nitrobenzoic acid [2-(3,4-dihydro-1H-isoquinolin-2-yl)-2-oxoethyl] ester] was 11.5 µM; that for `O=C(NC(=S)NNC(=O)c1cnccn1)c1ccc(Cl)cc1` [4-Chloro-N-[N'-(pyrazine-2-carbonyl)-hydrazinocarbothioyl]-benzamide] was 9.74 µM.
As to `O=C(c1cc(COc2c(F)cccc2F)on1)N1CCC(c2ccncc2)CC1` [4-[1-({5-[(2,6-difluorophenoxy)methyl]isoxazol-3-yl}carbonyl)piperidin-4-yl]pyridine], a half-maximal effect (EC50) was put at 17.9 µM.
Still for that read-out and setting: the value for `CCOC(=O)c1cc2c(ccn2-c2ccc(F)cc2)n1CC(=O)NC(C)(C)C` [4-[2-(tert-butylamino)-2-keto-ethyl]-1-(4-fluorophenyl)pyrrolo[3,2-b]pyrrole-5-carboxylic acid ethyl ester] was 19.2 µM; that for `COc1ccc(-c2cc(CCCC(=O)NCCc3ccccc3)no2)cc1` [4-[5-(4-methoxyphenyl)-1,2-oxazol-3-yl]-N-(2-phenylethyl)butanamide] was 0.642 µM; that for `COCCN1C(=O)/C(=C/c2ccc(OCc3ccc(C(=O)O)cc3)c(OC)c2)S/C1=N/c1ccccc1` [4-[(2-methoxy-4-{[3-(2-methoxyethyl)-4-oxo-2-(phenylimino)-1,3-thiazolidin-5-ylidene]methyl}phenoxy)methyl]benzoic acid] was 27.3 µM.
On the same count and under the same terms, for `Cc1n[nH]c(O)c1C(c1ccc(-c2ccc(F)cc2)o1)c1c(C)n[nH]c1O` [4-[[5-(4-fluorophenyl)furan-2-yl]-(3-methyl-5-oxo-1,2-dihydropyrazol-4-yl)methyl]-5-methyl-1,2-dihydropyrazol-3-one] the value was 9.41 µM; for `Cc1nn(-c2ccc(F)cc2)c(C)c1NS(=O)(=O)c1ccc(Cl)cc1` [4-chloranyl-N-[1-(4-fluorophenyl)-3,5-dimethyl-pyrazol-4-yl]benzenesulfonamide], 3290 µM.
Same read-out and setting: the value for `O=S(=O)(Nc1nc2ccccc2nc1N1CCN(c2ccccn2)CC1)c1ccc(Cl)cc1` [4-chloranyl-N-[3-(4-pyridin-2-ylpiperazin-1-yl)quinoxalin-2-yl]benzenesulfonamide] was 14.9 µM.
As for `COc1ccc(S(=O)(=O)N(C)CC(=O)N2CCN(Cc3ccccc3)CC2)cc1C` [4-methoxy-N,3-dimethyl-N-[2-oxidanylidene-2-[4-(phenylmethyl)piperazin-1-yl]ethyl]benzenesulfonamide], the concentration for a half-maximal effect (EC50) (usually the midpoint of the concentration-response curve) stood at 2.26 µM.
On the same count and under the same terms, the value for `Cc1ccc(CSCCNC(=O)c2ccc(C)cc2)cc1` [4-methyl-N-[2-[(4-methylbenzyl)thio]ethyl]benzamide] was 15.4 µM; that for `Sc1nnc(Cc2cccc3ccccc23)o1` [5-(1-naphthalenylmethyl)-3H-1,3,4-oxadiazole-2-thione] was 0.283 µM; that for `Sc1nnc(C2(c3ccccc3)CCCC2)o1` [5-(1-phenylcyclopentyl)-3H-1,3,4-oxadiazole-2-thione] was 1.31 µM.
Molecule `Sc1nnc(Cc2c[nH]c3ccccc23)o1` [5-(1H-indol-3-ylmethyl)-1,3,4-oxadiazole-2(3H)-thione] displayed an EC50 of 4.45 µM.
On the same count and under the same terms, the value for `N#Cc1nc(Cc2cccc3ccccc23)oc1NCCN1CCOCC1` [5-(2-Morpholin-4-yl-ethylamino)-2-naphthalen-1-ylmethyl-oxazole-4-carbonitrile] was 9.4 µM.
On the same count and under the same terms, for `COc1cccc(Nc2nnc(S)s2)c1` [5-(3-methoxyanilino)-3H-1,3,4-thiadiazole-2-thione] the value was 3.43 µM.
The same measure, in the same setting: for `Sc1nnc(COc2ccc(Cl)cc2)o1` [5-(4-Chloro-phenoxymethyl)-3H-[1,3,4]oxadiazole-2-thione] the value was 3.12 µM; for `N#Cc1nc(-c2cccs2)oc1N1CCN(Cc2ccccc2)CC1` [5-(4-benzyl-1-piperazinyl)-2-(2-thienyl)-1,3-oxazole-4-carbonitrile], 4.16 µM; for `N#Cc1nc(Cc2cccc3ccccc23)oc1N1CCOCC1` [5-(4-morpholinyl)-2-(1-naphthalenylmethyl)-4-oxazolecarbonitrile], 2.19 µM.
On to `O=C(NCC1CCCO1)C(c1cccs1)N(C(=O)c1ccc(-c2ccccc2)[nH]1)C1CCCC1` (stereo not given) [5-Phenyl-1H-pyrrole-2-carboxylic acid cyclopentyl-{[(tetrahydro-furan-2-ylmethyl)-carbamoyl]-thiophen-2-yl-methyl}-amide], for which it took 7.73 µM to reach a half-maximal effect (EC50).
`Cc1cccc(OCCc2nnc(N)s2)c1C` [5-[2-(2,3-Dimethyl-phenoxy)-ethyl]-[1,3,4]thiadiazol-2-ylamine] yielded a concentration giving a half-maximal response (EC50) of 6.16 µM.
Consider `Sc1nnc(CCc2ccc(Cl)cc2)o1` [5-[2-(4-chlorophenyl)ethyl]-1,3,4-oxadiazole-2-thiol], for which it took 1.57 µM to reach a half-maximal effect (EC50).
The same measure, in the same setting: for `O=C(Nc1cccnc1)c1ccc(COc2cc(Cl)ccc2Cl)o1` [5-[(2,5-dichlorophenoxy)methyl]-N-(3-pyridinyl)-2-furancarboxamide] the value was 3.88 µM; for `O=C(NCc1ccc2c(c1)OCO2)c1ccc(COc2cc(Cl)ccc2Cl)o1` [5-[(2,5-dichlorophenoxy)methyl]-N-piperonyl-2-furamide], 7.14 µM; for `O=C(NCc1cccnc1)c1ccc(COc2ccccc2Br)o1` [5-[(2-bromanylphenoxy)methyl]-N-(pyridin-3-ylmethyl)furan-2-carboxamide], 13.8 µM.
Same read-out and setting: the value for `O=C(Nc1cccnc1)c1ccc(COc2ccccc2Br)o1` [5-[(2-bromanylphenoxy)methyl]-N-pyridin-3-yl-furan-2-carboxamide] was 2.34 µM; that for `Sc1nnc(CNc2cccc(Cl)c2)o1` [5-[(3-chloroanilino)methyl]-3H-1,3,4-oxadiazole-2-thione] was 3.77 µM.
Same read-out and setting: for `Sc1nnc(Nc2ccccc2)s1` [5-anilino-3H-1,3,4-thiadiazole-2-thione] the value was 633 µM.
Take `CCCn1c(N)c(C(=O)CSc2nnc(Cc3ccccc3)o2)c(=O)n(C)c1=O` [6-amino-3-methyl-5-[1-oxo-2-[[5-(phenylmethyl)-1,3,4-oxadiazol-2-yl]thio]ethyl]-1-propylpyrimidine-2,4-dione]: the response was half-maximal at 0.00466 µM (EC50).

Still in this assay, the particulars now being: inactive by the depositor's call.
The molecule `O=C(Nc1ccn(Cc2ccccc2)n1)c1cccc(F)c1` [3-fluoranyl-N-[1-(phenylmethyl)pyrazol-3-yl]benzamide] gave an EC50 of 4.51 µM.
Still for that read-out and setting: for `Cc1ccc(S(=O)(=O)NCc2ccc(C(=O)N3CCN(Cc4ccccc4)CC3)cc2)cc1` [4-methyl-N-[[4-[4-(phenylmethyl)piperazin-1-yl]carbonylphenyl]methyl]benzenesulfonamide] the value was 6.59 µM; for `CC(C)c1ccc(NC(=O)c2cnn(-c3ccccc3)c2NC(=O)c2ccco2)cc1` [5-(2-furoylamino)-N-p-cumenyl-1-phenyl-pyrazole-4-carboxamide], 12.1 µM; for `CC(C)CNC(=O)c1ccc(COc2ccc(Cl)cc2Cl)o1` [5-[(2,4-dichlorophenoxy)methyl]-N-(2-methylpropyl)-2-furancarboxamide], 10.5 µM.
On the same count and under the same terms, for `CCc1ccc(-n2c(SCC(=O)c3ccc4c(c3)NC(=O)CO4)nc3ccccc3c2=O)cc1` [6-[2-[3-(4-ethylphenyl)-4-oxidanylidene-quinazolin-2-yl]sulfanylethanoyl]-4H-1,4-benzoxazin-3-one] the value was 51.8 µM.
